Test results from ChEMBL document CHEMBL6096652, “Design, synthesis and anti-tumor evaluation of novel pyrimidine and quinazoline analogues” (Eur J Med Chem, 2025).
pIC50: −log10 of the molar value. Activity calls are given as the source filed them. The rule behind the calls is not given here.

Experiments:
B16-F10 [1] = experiment: Antiproliferative activity against mouse B16-F10 cells incubated for 48 hrs by MTT assay; format: functional, cell-based; details: B16-F10, 48 h
A549 = experiment: Antiproliferative activity against human A549 cells incubated for 48 hrs by MTT assay; format: functional, cell-based; details: A549, 48 h
HepG2 = experiment: Antiproliferative activity against human HepG2 cells incubated for 48 hrs by MTT assay; format: functional, cell-based; details: HepG2, 48 h
MCF7 = experiment: Antiproliferative activity against human MCF7 cells incubated for 48 hrs by MTT assay; format: functional, cell-based; details: MCF7, 48 h
Tubulin (Homo sapiens) [2] = target: T1, Tubulin (Homo sapiens) (UniProt P68371+Q9H4B7+P0DPH7+P68366+Q13509+Q71U36+P04350+Q3ZCM7+P07437+P68363+Q9BQE3+Q6PEY2+Q13885+Q9BVA1+Q9BUF5); experiment: (§1) Inhibition of tubulin polymerization (unknown origin) measured upto 20 mins by absorbance based assay; format: protein-complex assay
Tubulin = experiment: as §1; format: protein-complex assay, Homo sapiens
Tubulin (Homo sapiens) [3] = target: T1, Tubulin (Homo sapiens); experiment: Disruption of microtubule polymerization in human HepG2 cells at 100 nM incubated for 12 hrs by immunofluorescence based analysis; format: cell-based
B16-F10 [4] = experiment: Induction of cell cycle arrest in mouse B16-F10 cells assessed as accumulation at G1 phase at 50 nM incubated for 24 hrs by flow cytometry (reference value: 57.91 %); format: functional
B16-F10 [5] = experiment: Induction of cell cycle arrest in mouse B16-F10 cells assessed as accumulation at S phase at 50 nM incubated for 24 hrs by flow cytometry (reference value: 37.84 %); format: functional
B16-F10 [6] = experiment: Induction of cell cycle arrest in mouse B16-F10 cells assessed as accumulation at G2/M phase at 50 nM incubated for 24 hrs by flow cytometry (reference value: 4.25 %); format: functional
B16-F10 [7] = experiment: Induction of cell cycle arrest in mouse B16-F10 cells assessed as accumulation at G1 phase at 100 nM incubated for 24 hrs by flow cytometry (reference value: 57.91 %); format: functional
B16-F10 [8] = experiment: Induction of cell cycle arrest in mouse B16-F10 cells assessed as accumulation at S phase at 100 nM incubated for 24 hrs by flow cytometry (reference value: 37.84 %); format: functional
B16-F10 [9] = experiment: Induction of cell cycle arrest in mouse B16-F10 cells assessed as accumulation at G2/M phase at 100 nM incubated for 24 hrs by flow cytometry (reference value: 4.25 %); format: functional
B16-F10 [10] = experiment: Induction of cell cycle arrest in mouse B16-F10 cells assessed as accumulation at G1 phase at 200 nM incubated for 24 hrs by flow cytometry (reference value: 57.91 %); format: functional
B16-F10 [11] = experiment: Induction of cell cycle arrest in mouse B16-F10 cells assessed as accumulation at S phase at 200 nM incubated for 24 hrs by flow cytometry (reference value: 37.84 %); format: functional
B16-F10 [12] = experiment: Induction of cell cycle arrest in mouse B16-F10 cells assessed as accumulation at G2/M phase at 200 nM incubated for 24 hrs by flow cytometry (reference value: 4.25 %); format: functional
B16-F10 [13] = experiment: Induction of cell cycle arrest in mouse B16-F10 cells assessed as accumulation at G2/M phase incubated for 24 hrs by flow cytometry; format: functional, cell-based
B16-F10 [14] = experiment: Induction of apoptosis in mouse B16-F10 cells assessed as viable cells at 50 nM incubated for 24 hrs by Annexin V-PE/7-AAD staining based flow cytometry (reference value: 94.5 %); format: functional; details: read-out: Activity
B16-F10 [15] = experiment: Induction of apoptosis in mouse B16-F10 cells assessed as early apoptotic cells at 50 nM incubated for 24 hrs by Annexin V-PE/7-AAD staining based flow cytometry (reference value: 1.04 %); format: functional
B16-F10 [16] = experiment: Induction of apoptosis in mouse B16-F10 cells assessed as late apoptotic cells at 50 nM incubated for 24 hrs by Annexin V-PE/7-AAD staining based flow cytometry (reference value: 4.13 %); format: functional
B16-F10 [17] = experiment: Induction of apoptosis in mouse B16-F10 cells assessed as necrotic cells at 50 nM incubated for 24 hrs by Annexin V-PE/7-AAD staining based flow cytometry (reference value: 0.33 %); format: functional
B16-F10 [18] = experiment: Induction of apoptosis in mouse B16-F10 cells assessed as total apoptotic cells at 50 nM incubated for 24 hrs by Annexin V-PE/7-AAD staining based flow cytometry (reference value: 5.17 %); format: functional
B16-F10 [19] = experiment: Induction of apoptosis in mouse B16-F10 cells assessed as viable cells at 100 nM incubated for 24 hrs by Annexin V-PE/7-AAD staining based flow cytometry (reference value: 94.5 %); format: functional; details: read-out: Activity
B16-F10 [20] = experiment: Induction of apoptosis in mouse B16-F10 cells assessed as early apoptotic cells at 100 nM incubated for 24 hrs by Annexin V-PE/7-AAD staining based flow cytometry (reference value: 1.04 %); format: functional
B16-F10 [21] = experiment: Induction of apoptosis in mouse B16-F10 cells assessed as late apoptotic cells at 100 nM incubated for 24 hrs by Annexin V-PE/7-AAD staining based flow cytometry (reference value: 4.13 %); format: functional
B16-F10 [22] = experiment: Induction of apoptosis in mouse B16-F10 cells assessed as necrotic cells at 100 nM incubated for 24 hrs by Annexin V-PE/7-AAD staining based flow cytometry (reference value: 0.33 %); format: functional
B16-F10 [23] = experiment: Induction of apoptosis in mouse B16-F10 cells assessed as total apoptotic cells at 100 nM incubated for 24 hrs by Annexin V-PE/7-AAD staining based flow cytometry (reference value: 5.17 %); format: functional
B16-F10 [24] = experiment: Induction of apoptosis in mouse B16-F10 cells assessed as viable cells at 200 nM incubated for 24 hrs by Annexin V-PE/7-AAD staining based flow cytometry (reference value: 94.5 %); format: functional; details: read-out: Activity
B16-F10 [25] = experiment: Induction of apoptosis in mouse B16-F10 cells assessed as early apoptotic cells at 200 nM incubated for 24 hrs by Annexin V-PE/7-AAD staining based flow cytometry (reference value: 1.04 %); format: functional
B16-F10 [26] = experiment: Induction of apoptosis in mouse B16-F10 cells assessed as late apoptotic cells at 200 nM incubated for 24 hrs by Annexin V-PE/7-AAD staining based flow cytometry (reference value: 4.13 %); format: functional
B16-F10 [27] = experiment: Induction of apoptosis in mouse B16-F10 cells assessed as necrotic cells at 200 nM incubated for 24 hrs by Annexin V-PE/7-AAD staining based flow cytometry (reference value: 0.33 %); format: functional
B16-F10 [28] = experiment: Induction of apoptosis in mouse B16-F10 cells assessed as total apoptotic cells at 200 nM incubated for 24 hrs by Annexin V-PE/7-AAD staining based flow cytometry (reference value: 5.17 %); format: functional
B16-F10 [29] = experiment: Inhibition of cell migration in mouse B16-F10 cells assessed as recovery of scratch area at 50 nM incubated for 24 hrs by wound healing assay (reference value: 72.97 %); format: functional; design: scale not given: the % may be the effect or the level left
B16-F10 [30] = experiment: Inhibition of cell migration in mouse B16-F10 cells assessed as recovery of scratch area at 100 nM incubated for 24 hrs by wound healing assay (reference value: 72.97 %); format: functional; design: scale not given: the % may be the effect or the level left
B16-F10 [31] = experiment: Inhibition of cell migration in mouse B16-F10 cells assessed as recovery of scratch area at 200 nM incubated for 24 hrs by wound healing assay (reference value: 72.97 %); format: functional; design: scale not given: the % may be the effect or the level left
B16-F10 [32] = experiment: Antitumor activity against mouse B16-F10 cells implanted in C57BL/6 mouse assessed as reduction in tumor volume at 15 mg/kg measured after 10 days; format: functional, organism-based; details: time 10.0 day
B16-F10 [33] = experiment: Antitumor activity against mouse B16-F10 cells implanted in C57BL/6 mouse at 15 mg/kg measured after 10 days relative to control; format: functional; details: B16-F10, 240 h, time 10 day, read-out: TGI
B16-F10 [34] = experiment: Antitumor activity against mouse B16-F10 cells implanted in C57BL/6 mouse at 30 mg/kg measured after 10 days relative to control; format: functional; details: B16-F10, 240 h, time 10 day, read-out: TGI
[35] = Toxicity in C57BL/6 mouse implanted with mouse B16-F10 cells assessed as body weight change at 15 to 30 mg/kg measured after 10 days; format: organism-based; details: in vivo, 240 h, dose 15-30 mg/kg, time 10 day
[36] = Toxicity in C57BL/6 mouse implanted with mouse B16-F10 cells assessed as adverse effects at 15 to 30 mg/kg measured after 10 days; format: organism-based; details: in vivo, 240 h, dose 15-30 mg/kg, time 10 day

Compound COc1cc(Nc2ccnc(-c3cccc4c3ccn4C)n2)cc(OC)c1OC has a pIC50 (B16-F10 [1]) of 7.01, a pIC50 (A549) of 6.87 and a pIC50 (HepG2) of 6.96. For the same compound, the pIC50 (MCF7) was 6.59, the inhibition (Tubulin (Homo sapiens) [2]) was “Dose-dependent-effect” and the pIC50 (Tubulin) was 4.65. For the same compound, the Activity (Tubulin (Homo sapiens) [3]) was “Active”, the Activity (B16-F10 [4]) was 51.86% and the Activity (B16-F10 [5]) was 32.53%. It also gave an Activity (B16-F10 [6]) of 15.61%, an Activity (B16-F10 [7]) of 11.76% and an Activity (B16-F10 [8]) of 23.18%. It also gave an Activity (B16-F10 [9]) of 65.06%, an Activity (B16-F10 [10]) of 5.91% and an Activity (B16-F10 [11]) of 11.67%. For the same compound, the Activity (B16-F10 [12]) was 82.41%, the Activity (B16-F10 [13]) was “Dose-dependent-effect” and the viability at 0.05 µM (B16-F10 [14]) was 88.3%. It also gave an Activity (B16-F10 [15]) of 1.71%, an Activity (B16-F10 [16]) of 8.25% and an Activity (B16-F10 [17]) of 1.7%. The Activity (B16-F10 [18]) was 9.96%, the viability at 0.1 µM (B16-F10 [19]) was 86% and the Activity (B16-F10 [20]) was 3.58%. It also gave an Activity (B16-F10 [21]) of 9.91%, an Activity (B16-F10 [22]) of 0.52% and an Activity (B16-F10 [23]) of 13.49%. It also gave a viability at 0.2 µM (B16-F10 [24]) of 77.4%, an Activity (B16-F10 [25]) of 3.4% and an Activity (B16-F10 [26]) of 18.8%. It also gave an Activity (B16-F10 [27]) of 0.36%, an Activity (B16-F10 [28]) of 22.2% and an Activity (B16-F10 [29]) of 69.89%. For the same compound, the Activity (B16-F10 [30]) was 37.37%, the Activity (B16-F10 [31]) was 22.38% and the Activity (B16-F10 [32]) was “Active”. The inhibition in vivo at 15 mg/kg (B16-F10 [33]) was 57.9%, the inhibition in vivo at 30 mg/kg (B16-F10 [34]) was 79.6% and the Activity [35] was “Non-toxic”. For the same compound, the Activity [36] was “Non-toxic”.
